{"source": "patent US7410975B2", "about": "“Small molecule toll-like receptor (TLR) antagonists” (Coley Pharmaceutical Group, Inc., priority 2003, dated 2008)", "molecular_target": "T1, human TLR3 (hTLR3) (Homo sapiens, UniProt O15455)", "T1 construct": "expressed in transfected cells", "T1 sequence (O15455 24-904)": "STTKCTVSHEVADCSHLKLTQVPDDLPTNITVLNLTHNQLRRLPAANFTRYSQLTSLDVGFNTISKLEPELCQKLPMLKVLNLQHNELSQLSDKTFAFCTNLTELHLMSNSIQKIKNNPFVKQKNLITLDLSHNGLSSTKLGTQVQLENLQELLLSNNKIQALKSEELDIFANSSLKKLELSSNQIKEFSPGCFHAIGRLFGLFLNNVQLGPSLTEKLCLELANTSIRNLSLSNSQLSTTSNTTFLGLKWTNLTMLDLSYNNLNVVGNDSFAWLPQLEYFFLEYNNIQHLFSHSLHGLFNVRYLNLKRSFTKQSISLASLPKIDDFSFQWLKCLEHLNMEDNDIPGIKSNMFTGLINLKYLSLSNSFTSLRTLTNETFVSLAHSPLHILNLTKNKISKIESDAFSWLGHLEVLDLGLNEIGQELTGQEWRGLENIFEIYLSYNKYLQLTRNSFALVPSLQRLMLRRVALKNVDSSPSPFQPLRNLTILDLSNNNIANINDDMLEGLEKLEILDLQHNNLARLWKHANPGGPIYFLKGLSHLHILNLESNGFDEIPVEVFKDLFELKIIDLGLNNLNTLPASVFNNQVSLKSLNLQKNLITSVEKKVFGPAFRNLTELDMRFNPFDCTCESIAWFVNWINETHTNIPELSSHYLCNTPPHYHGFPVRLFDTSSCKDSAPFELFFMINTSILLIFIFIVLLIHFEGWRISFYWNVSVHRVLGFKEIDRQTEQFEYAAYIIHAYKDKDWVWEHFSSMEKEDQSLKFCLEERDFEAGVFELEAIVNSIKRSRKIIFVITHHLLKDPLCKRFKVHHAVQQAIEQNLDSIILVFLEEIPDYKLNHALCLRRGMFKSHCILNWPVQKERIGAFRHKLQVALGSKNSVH", "assay": "Antagonist screen, hTLR3-NFκB-293 cells, NF-κB-luciferase reporter, with EC50 of poly(I:C)", "type": "cell-based", "conditions": "compound at 0.5, 5, 50 μg/ml; EC50 concentration of poly(I:C); 16 h; NF-κB-luciferase", "experimental": "The method is described in greater detail as follows. The cells for each individual cell clone (hTLR3-NFκB-293, hTLR7-NFκB-293, hTLR8-NFκB-293 and hTLR9-NFκB-293) were counted and seeded one day before the stimulation at 1.5×10^4 cells per well in 96-well cell culture plates. To become adherent the cells were incubated after seeding overnight at 37° C. in 5% CO2 humidified air.\nThe screen for each compound was performed at the same time for all of the receptors TLR3, TLR7, TLR8 and TLR9. Up to fifteen test compounds, each assayed in duplicate at each of three different final concentrations (0.5 μg/ml, 5 μg/ml, and 50 μg/ml), were used for 16 h cell stimulation on a single multiwell culture plate. A 4× final concentration master plate was created to prepare the different test compounds before they were added to the cells.\nControls were added as duplicates individually for each cell clone on the cell culture plate. Positive controls were used as follows (final concentrations): 50 μg/ml poly(I:C) for hTLR3-NFκB-293; 8 μM resiquimod (R848) for hTLR7-NFκB-293; 30 μM R848 for hTLR8-NFκB-293; and 2.5 μM CpG-ODN 2006 for hTLR9-NFκB-293. Media alone was used as negative control. After addition of controls and small molecules, the cell clones were additionally stimulated with the EC50 concentration of the appropriate receptor-specific ligand.\nThe mean value of wells H2 and H5 (each with cells and EC50 concentration of the appropriate receptor-specific ligand) divided by the mean of wells H3 and H6 (each with cells alone) yielded the baseline response (i.e., fold induction of luciferase activity) to EC50 concentration of the appropriate receptor-specific ligand.\nAfter 16 h stimulation the supernatant was removed and the cells treated with lysis buffer and stored at −80° C. before measuring.\nFor each screen result a graphical documentation was performed.\nThe baseline result (measured with addition of the EC50 concentration of the receptor-specific ligand) for each cell culture plate was measured as described above. Antagonistic effects were measured by down regulation compared to the baseline. Antagonists were scored as follows: • 13: compounds for which there was clear down regulation at 0.5 μg/ml, 5 μg/ml, and 50 μg/ml; • 12: compounds for which there was clear down regulation at 5 μg/ml and 50 μg/ml; • 11: compounds for which there was clear down regulation only at 50 μg/ml; • —: compounds for which there was no clear down regulation even at 50 μg/ml. Agonists\nResults were expressed as fold induction over baseline luciferase activity measured in the absence of poly(I:C). […] Additional screening was performed in like manner using additional small molecules selected from another library or specifically prepared for this purpose. Scoring is reported as above but as applied to TLR3.", "note": "Structures can show the parent of a compound that is named as a salt.", "data": [{"smiles": "CC[C@]12CCCN3CCc4c(n(c5ccccc45)C(=O)C1)[C@@H]32", "note": "[compound 607, Eburnamonine]", "values": [{"measurement": "hTLR3 (inhibitory effect, antagonist score)", "result": "— (compounds for which there was no clear down regulation even at 50 μg/ml)"}]}, {"smiles": "Cc1nccc2c1[nH]c1cc(O)ccc12.Cl", "note": "[compound 612, Harmol hydrochloride monohydrate]", "values": [{"measurement": "hTLR3 (inhibitory effect, antagonist score)", "result": "11 (compounds for which there was clear down regulation only at 50 μg/ml)"}]}, {"smiles": "COc1ccc2c(c1)[nH]c1c(C)nccc12.Cl", "note": "[compound 613, harmine hydrochloride]", "values": [{"measurement": "hTLR3 (inhibitory effect, antagonist score)", "result": "12 (compounds for which there was clear down regulation at 5 μg/ml and 50 μg/ml)"}]}, {"smiles": "Cc1c2ccncc2c(C)c2c1[nH]c1ccccc12", "note": "[compound 614, Ellipticine]", "values": [{"measurement": "hTLR3 (inhibitory effect, antagonist score)", "result": "12 (compounds for which there was clear down regulation at 5 μg/ml and 50 μg/ml)"}]}, {"smiles": "Cc1nccc2c1[nH]c1ccccc12", "note": "[compound 620, Harmane hydrochloride]", "values": [{"measurement": "hTLR3 (inhibitory effect, antagonist score)", "result": "— (compounds for which there was no clear down regulation even at 50 μg/ml)"}]}, {"smiles": "COc1ccc2[nH]c3c(c2c1)CCN=C3C", "note": "[compound 621, Methoxy-6-harmalan]", "values": [{"measurement": "hTLR3 (inhibitory effect, antagonist score)", "result": "— (compounds for which there was no clear down regulation even at 50 μg/ml)"}]}, {"smiles": "CC[C@]12CCCN3CCc4c(n(c5ccccc45)[C@](O)(C(=O)OC)C1)[C@@H]32", "note": "[compound 636, Epivincamine]", "values": [{"measurement": "hTLR3 (inhibitory effect, antagonist score)", "result": "11 (compounds for which there was clear down regulation only at 50 μg/ml)"}]}, {"smiles": "Cl.Cl.c1ccc2c3c([nH]c2c1)C1C2CCC(C4CCCNC42)N1CC3", "note": "(centres unmarked) [compound 685, Nitrarine dihydorchloride]", "values": [{"measurement": "hTLR3 (inhibitory effect, antagonist score)", "result": "— (compounds for which there was no clear down regulation even at 50 μg/ml)"}]}, {"smiles": "CN(C)CCCN1c2ccccc2Sc2ccccc21.Cl", "note": "[compound 693, Promazinehydrochloride]", "values": [{"measurement": "hTLR3 (inhibitory effect, antagonist score)", "result": "— (compounds for which there was no clear down regulation even at 50 μg/ml)"}]}, {"smiles": "CN1CCC(OC(c2ccccc2)c2ccccc2)CC1.Cl", "note": "[compound 707, Diphenylpyralinehydrochloride]", "values": [{"measurement": "hTLR3 (inhibitory effect, antagonist score)", "result": "— (compounds for which there was no clear down regulation even at 50 μg/ml)"}]}, {"smiles": "CCCC(C(=O)OCCN(CC)CC)(c1ccccc1)c1ccccc1.Cl", "note": "[compound 778, Proadifen hydrochloride]", "values": [{"measurement": "hTLR3 (inhibitory effect, antagonist score)", "result": "11 (compounds for which there was clear down regulation only at 50 μg/ml)"}]}, {"smiles": "Cl.Clc1ccc(C(OCCN2CCCCC2)c2ccccc2)cc1", "note": "(centres unmarked) [compound 793, Cloperastinehydrochloride]", "values": [{"measurement": "hTLR3 (inhibitory effect, antagonist score)", "result": "11 (compounds for which there was clear down regulation only at 50 μg/ml)"}]}, {"smiles": "COc1ccc2c(c1)N(CC(C)CN(C)C)c1ccccc1S2.O=C(O)/C=C\\C(=O)O", "note": "(centres unmarked) [compound 797, Methotrimeprazinemaleat salt]", "values": [{"measurement": "hTLR3 (inhibitory effect, antagonist score)", "result": "11 (compounds for which there was clear down regulation only at 50 μg/ml)"}]}, {"smiles": "CS(=O)(=O)O.OC(CCN1CCCCC1)(c1ccccc1)c1ccccc1", "note": "[compound 799, Pridinolmethanesulfonate salt]", "values": [{"measurement": "hTLR3 (inhibitory effect, antagonist score)", "result": "— (compounds for which there was no clear down regulation even at 50 μg/ml)"}]}, {"smiles": "C[N+]12CCC(CC1)C(OC(=O)C(O)(c1ccccc1)c1ccccc1)C2.[Br-]", "note": "(centres unmarked) [compound 822, Clidinium bromide]", "values": [{"measurement": "hTLR3 (inhibitory effect, antagonist score)", "result": "— (compounds for which there was no clear down regulation even at 50 μg/ml)"}]}, {"smiles": "Clc1ccc(C(c2ccccc2Cl)C(Cl)Cl)cc1", "note": "(centres unmarked) [compound 833, Mitotane]", "values": [{"measurement": "hTLR3 (inhibitory effect, antagonist score)", "result": "11 (compounds for which there was clear down regulation only at 50 μg/ml)"}]}, {"smiles": "CCN(CC)C(C)CN1c2ccccc2Sc2ccccc21.Cl", "note": "(centres unmarked) [compound 840, Ethopropazinehydrochloride]", "values": [{"measurement": "hTLR3 (inhibitory effect, antagonist score)", "result": "— (compounds for which there was no clear down regulation even at 50 μg/ml)"}]}, {"smiles": "CC(CN(C)C)CN1c2ccccc2Sc2ccccc21.CC(CN(C)C)CN1c2ccccc2Sc2ccccc21.O=C(O)C(O)C(O)C(=O)O", "note": "(centres unmarked) [compound 842, Trimeprazine tartrate]", "values": [{"measurement": "hTLR3 (inhibitory effect, antagonist score)", "result": "— (compounds for which there was no clear down regulation even at 50 μg/ml)"}]}, {"smiles": "COC(=O)[C@H]1[C@H]2C[C@@H]3c4[nH]c5cc(OC)ccc5c4CCN3C[C@H]2C[C@@H](OC(=O)c2cc(OC)c(OC)c(OC)c2)[C@@H]1OC", "note": "[compound 875, Reserpine]", "values": [{"measurement": "hTLR3 (inhibitory effect, antagonist score)", "result": "— (compounds for which there was no clear down regulation even at 50 μg/ml)"}]}, {"smiles": "OCc1cc2c(cn1)[nH]c1ccccc12", "note": "[compound 878, 3-hydroxymethyl-beta-carboline]", "values": [{"measurement": "hTLR3 (inhibitory effect, antagonist score)", "result": "— (compounds for which there was no clear down regulation even at 50 μg/ml)"}]}, {"smiles": "O=C(O)c1cc(C(c2ccc(O)c(C(=O)O)c2)C(Cl)(Cl)Cl)ccc1O", "note": "[compound 884]", "values": [{"measurement": "hTLR3 (inhibitory effect, antagonist score)", "result": "— (compounds for which there was no clear down regulation even at 50 μg/ml)"}]}, {"smiles": "CN(CCO)C(=O)c1cccc2c1-c1ccccc1C2=O", "note": "[compound 890]", "values": [{"measurement": "hTLR3 (inhibitory effect, antagonist score)", "result": "— (compounds for which there was no clear down regulation even at 50 μg/ml)"}]}, {"smiles": "COC(=O)c1cccc2c1-c1ccccc1/C2=N/O", "note": "[compound 904]", "values": [{"measurement": "hTLR3 (inhibitory effect, antagonist score)", "result": "12 (compounds for which there was clear down regulation at 5 μg/ml and 50 μg/ml)"}]}, {"smiles": "O=C(O)c1ccccc1NC1CC=CC2=C1C(=O)c1ccccc1C2=O", "note": "(centres unmarked) [compound 917]", "values": [{"measurement": "hTLR3 (inhibitory effect, antagonist score)", "result": "12 (compounds for which there was clear down regulation at 5 μg/ml and 50 μg/ml)"}]}, {"smiles": "O=C(O)c1cccc2c1/C(=N/O)c1ccccc1-2", "note": "[compound 918]", "values": [{"measurement": "hTLR3 (inhibitory effect, antagonist score)", "result": "— (compounds for which there was no clear down regulation even at 50 μg/ml)"}]}, {"smiles": "CCCCOC(=O)c1cc([N+](=O)[O-])cc2c1-c1cc(CO)c([NH+]([O-])O)cc1C2=C(C#N)C#N", "note": "(centres unmarked) [compound 939]", "values": [{"measurement": "hTLR3 (inhibitory effect, antagonist score)", "result": "11 (compounds for which there was clear down regulation only at 50 μg/ml)"}]}, {"smiles": "O=C(O)c1cccc2c1-c1ccccc1/C2=N/Nc1ccc([N+](=O)[O-])cc1[N+](=O)[O-]", "note": "[compound 944]", "values": [{"measurement": "hTLR3 (inhibitory effect, antagonist score)", "result": "11 (compounds for which there was clear down regulation only at 50 μg/ml)"}]}, {"smiles": "C=CCc1ccccc1OC1(c2ccccc2)OC(=O)c2ccccc21", "note": "(centres unmarked) [compound 957]", "values": [{"measurement": "hTLR3 (inhibitory effect, antagonist score)", "result": "12 (compounds for which there was clear down regulation at 5 μg/ml and 50 μg/ml)"}]}, {"smiles": "COC(=O)c1ccc(C2CC(=O)Nc3c2ccc2ccccc32)cc1", "note": "(centres unmarked) [compound 965]", "values": [{"measurement": "hTLR3 (inhibitory effect, antagonist score)", "result": "12 (compounds for which there was clear down regulation at 5 μg/ml and 50 μg/ml)"}]}, {"smiles": "O=C(O)c1ccc(C2(c3ccc(C(=O)O)cc3)OC(=O)c3ccccc32)cc1", "note": "[compound 970]", "values": [{"measurement": "hTLR3 (inhibitory effect, antagonist score)", "result": "— (compounds for which there was no clear down regulation even at 50 μg/ml)"}]}, {"smiles": "Cc1cc(OC(=O)C2C3CCCCC32)c(C(C)C)cc1C1(c2cc(C(C)C)c(OC(=O)C3C4CCCCC43)cc2C)OC(=O)c2ccccc21", "note": "(centres unmarked) [compound 974]", "values": [{"measurement": "hTLR3 (inhibitory effect, antagonist score)", "result": "11 (compounds for which there was clear down regulation only at 50 μg/ml)"}]}, {"smiles": "CCN(CC)CCCN(CC(=O)C1c2ccc(Cl)cc2NC(=O)c2ccccc21)C(=O)c1ccccc1", "note": "(centres unmarked) [compound 1013]", "values": [{"measurement": "hTLR3 (inhibitory effect, antagonist score)", "result": "— (compounds for which there was no clear down regulation even at 50 μg/ml)"}]}]}
